Measured values taken from patent publication US20220008537A1, “COMPOUNDS FOR PHOTODYNAMIC THERAPY AND RELATED USES” (GEORGIA STATE UNIVERSITY RESEARCH FOUNDATION, INC., priority 2018, published 2022).

Legend:
[1] = test system: pUC19 plasmid DNA; assay: DNA photocleavage inhibition induced by chemical additives; format: biochemical; conditions: 20 μM dye, 38 μM bp pUC19, 830 nm 300 mW LED laser, pH 7.0
Protocol: Individual DNA cleavage reactions containing 5 μM to 50 μM concentrations of cyanine dye, 38 μM bp of pUC19 plasmid, and 10 mM of sodium phosphate pH 7.0 were prepared in a total volume of 40 μL. In order maintain reaction temperature at 10° C., 22° C., or 37° C., the samples were placed in a thermometer-fitted metal block that was either heated, kept at room temperature, or immersed in an ice bath. While monitoring temperature with the thermometer, the samples were either kept in the dark or were irradiated at time interval ranging from 5 min to 120 min using a light emitting diode (LED) laser (LaserLands) with a peak emission wavelength of either 532 nm (100 mW), 808 nm (300 mW), or 830 nm (300 mW). At the end of the irradiation time interval, a total of 3 μL of electrophoresis loading buffer containing 15.0% (w/v) ficoll and 0.025% (w/v) bromophenol blue) was added to each reaction and 20 μL of the resulting solution was added to one of the wells of 1.5% agarose gel stained with ethidium bromide (0.5 μg/mL, final concentration). Completely loaded gels were then electrophoresed for 60 min at 105 V in a Bio-Rad Laboratories gel box using 1×tris-acetate-EDTA (TAE) containing 0.5 μg/mL ethidium bromide as the running buffer. Electrophoresed gels were visualized at 302 nm with a VWR Scientific LM-20E transilluminator and then photographed with a UVP PhotoDoc-ItTM Imaging System. For quantitating the gels, ImageQuant version 5.2 software was employed. The DNA photocleavage yields were then calculated using the formula: Percent Photocleavage=[(Linear+Nicked DNA)/(Linear+Nicked+Supercoiled DNA)]×100. In an argon-purged glove box, 40 μL photocleavage reactions containing 10 mM sodium phosphate buffer pH 7.0, 20 μM of cyanine dye, and 38 μM bp of pUC19 plasmid were prepared from solutions bubbled with argon and then irradiated at 830 nm for 30 min The procedure was repeated using aerated solutions in a glove box purged with air. A second set of reactions containing 10 mM of sodium phosphate buffer pH 7.0, 38 μM bp pUC19 plasmid DNA and 20 μM of dye were prepared in the presence and absence of either 100 mM of the singlet oxygen scavenger sodium azide, 100 mM of the hydroxyl radical scavenger sodium benzoate, or 84% D2O (v/v). […] After the irradiation, the above DNA reactions were electrophoresed on 1.5% non-denaturing agarose gels, visualized, and quantitated as just described. The percent change in DNA photocleavage was then calculated using the formula, where additive stands for either argon, sodium azide, sodium benzoate, or D2O: Percent Change in Cleavage=[(% Total of Linear and Nicked […] additive-% Total of Linear and Nicked DNAwithout additive)/(% Total of Linear and Nicked DNAwithout additive)]×100. […]

| melting point | SMILES | Photocleavage inhibition (%) ([1]; Reagent Argon (targets 1O2 & •OH)) | Photocleavage inhibition (%) ([1]; Reagent D2O 84% (v/v) (target 1O2)) | Photocleavage inhibition (%) ([1]; Reagent Sodium azide 100 mM (targets 1O2 > •OH)) | Photocleavage inhibition (%) ([1]; Reagent Sodium benzoate 100 mM (target •OH)) |
| --- | --- | --- | --- | --- | --- |
| 239 °C (dec.) | CN1C=C/C(=C/C=C/C=C/c2cc[n+](C)c3ccccc23)c2ccccc21.[I-] [Dye 4, 1-methyl-4-((1E,3E)-5-((Z)-1-methylquinolin-4(1H)-ylidene)penta-1,3-dien-1-yl)quinolin-1-ium iodide] | – | – | – | – |
| > 260 °C | CN1C=C/C(=C/C=C(Cl)/C=C/c2cc[n+](C)c3ccccc23)c2ccccc21.[I-] [Dye 5, 4-((1E,3Z)-3-chloro-5-((Z)-1-methylquinolin-4(1H)-ylidene)penta-1,3-dien-1-yl)-1-methylquinolin-1-ium iodide] | 67 ± 3% | 6 ± 1% | 26 ± 3% | 31 ± 2% |
